# Measured values: US7138361B2, “Herbicidal heterocycles” (E. I. du Pont de Nemours and Company, priority 2000, dated 2006)
# Tests used:
# Type in all cases: in vivo
# [1] = test system: Surinam grass (Brachiaria decumbens); assay: Test B postemergence; conditions: 13 to 15 days
# Outline: (§1)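 Visual injury scores, 0 = no effect to 100 = complete control, assigned against controls after 13 to 15 days in the greenhouse. Compounds formulated in non-phytotoxic solvent plus surfactant and applied to soil after planting (pre) or onto foliage of 1- to 4-leaf plants (post).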
# [2] = test system: barnyardgrass (Echinochloa crus-galli); assay: Test B postemergence; conditions: 13 to 15 days
# Outline: as §1
# [3] = test system: blackgrass (Alopecurus myosuroides); assay: Test B postemergence; conditions: 13 to 15 days
# Outline: as §1
# [4] = test system: cocklebur (Xanthium strumarium); assay: Test B postemergence; conditions: 13 to 15 days
# Outline: as §1
# corn (Zea mays) [5] = assay: Test B postemergence; conditions: 13 to 15 days
# Outline: as §1
# [6] = test system: crabgrass (Digitaria sanguinalis); assay: Test B postemergence; conditions: 13 to 15 days
# Outline: as §1
# [7] = test system: giant foxtail (Setaria faberii); assay: Test B postemergence; conditions: 13 to 15 days
# Outline: as §1
# [8] = test system: lambsquarters (Chenopodium album); assay: Test B postemergence; conditions: 13 to 15 days
# Outline: as §1
# [9] = test system: morning glory (Ipomoea hederacea); assay: Test B postemergence; conditions: 13 to 15 days
# Outline: as §1
# [10] = test system: pigweed (Amaranthus retroflexus); assay: Test B postemergence; conditions: 13 to 15 days
# Outline: as §1
# [11] = test system: velvetleaf (Abutilon theophrasti); assay: Test B postemergence; conditions: 13 to 15 days
# Outline: as §1
# [12] = test system: wheat (Triticum aestivum); assay: Test B postemergence; conditions: 13 to 15 days
# Outline: as §1
# wild oat (Avena fatua) = assay: Test B postemergence; conditions: 13 to 15 days
# Outline: as §1
# [13] = test system: Surinam grass (Brachiaria decumbens); assay: Test B preemergence
# Outline: as §1
# [14] = test system: barnyardgrass (Echinochloa crus-galli); assay: Test B preemergence
# Outline: as §1
# [15] = test system: cocklebur (Xanthium strumarium); assay: Test B preemergence
# Outline: as §1
# corn (Zea mays) [16] = assay: Test B preemergence
# Outline: as §1
# [17] = test system: crabgrass (Digitaria sanguinalis); assay: Test B preemergence
# Outline: as §1
# [18] = test system: giant foxtail (Setaria faberii); assay: Test B preemergence
# Outline: as §1
# [19] = test system: lambsquarters (Chenopodium album); assay: Test B preemergence
# Outline: as §1
# [20] = test system: morning glory (Ipomoea hederacea); assay: Test B preemergence
# Outline: as §1
# [21] = test system: pigweed (Amaranthus retroflexus); assay: Test B preemergence
# Outline: as §1
# rice (Oryza saliva) = assay: Test B preemergence
# Outline: as §1
# [22] = test system: velvetleaf (Abutilon theophrasti); assay: Test B preemergence
# Outline: as §1
# [23] = test system: smallflower flatsedge (Cyperus difformis); assay: Test C flooded paddy test; conditions: for Flatsedge plant response rating: Flooded Paddy, scale 0 to 100, 0 no effect, 100 complete control; for Plant response rating, Flatsedge: flooded paddy test, scale 0 to 100 (0 no effect, 100 complete control)
# Outline: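 Greenhouse-maintained for 12 to 14 days after treatment, the paddy plants (2-leaf stage at application) were scored visually against controls. A score of 0 denotes no effect and a score of 100 denotes complete control.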
# Sunflower [24] = assay: Test C preemergence; conditions: Rate 500 g/ha, visual evaluation after 12 to 14 days
# Sunflower [25] = assay: Test C preemergence; conditions: Rate 250 g/ha, scale 0 to 100, 0 no effect, 100 complete control
# [26] = Rate 125 g/ha, scale 0 (no effect) to 100 (complete control)
# [27] = Rate 500 g/ha, scale 0 to 100, 0 is no effect, 100 is complete control
# [28] = Preemergence, Rate 500 g/ha, scale 0 to 100, 0 no effect, 100 complete control
# [29] = preemergence, Rate 125 g/ha, scale of 0 to 100 where 0 is no effect and 100 is complete control, 13 to 15 days
smiles,measurement,setting,value
CSc1cccc(N2CCC(n3ccc(C(C)(C)C)n3)C2=O)c1 (centres unmarked) [Compound 86],"Plant response rating, Surinam grass",[1]; [26],0
same,"Plant response rating, Surinam grass",[1]; [27],0
same,"Plant response rating, Barnyardgrass",[2]; [26],0
same,"Plant response rating, Barnyardgrass",[2]; [27],0
same,"Plant response rating, Blackgrass",[3]; [26],0
same,"Plant response rating, Blackgrass",[3]; [27],0
same,"Plant response rating, Cocklebur",[4]; [26],0
same,"Plant response rating, Cocklebur",[4]; [27],0
same,"Plant response rating, Corn",corn (Zea mays) [5]; [26],0
same,"Plant response rating, Corn",corn (Zea mays) [5]; [27],0
same,"Plant response rating, Crabgrass",[6]; [26],0
same,"Plant response rating, Crabgrass",[6]; [27],0
same,"Plant response rating, Foxtail, Giant",[7]; [26],0
same,"Plant response rating, Foxtail, Giant",[7]; [27],0
same,"Plant response rating, Lambsquarters",[8]; [26],0
same,"Plant response rating, Lambsquarters",[8]; [27],50
same,"Plant response rating, Morningglory",[9]; [26],0
same,"Plant response rating, Morningglory",[9]; [27],0
same,"Plant response rating, Pigweed",[10]; [26],0
same,"Plant response rating, Pigweed",[10]; [27],0
same,"Plant response rating, Velvetleaf",[11]; [26],0
same,"Plant response rating, Velvetleaf",[11]; [27],0
same,"Plant response rating, Wheat",[12]; [26],0
same,"Plant response rating, Wheat",[12]; [27],0
same,"Plant response rating, Wild Oat",wild oat (Avena fatua); [26],0
same,"Plant response rating, Wild Oat",wild oat (Avena fatua); [27],0
same,"Plant response rating, Surinam grass",[13]; [28],60
same,"Plant response rating, Surinam grass",[13]; [29],0
same,"Plant response rating, Barnyardgrass",[14]; [28],100
same,"Plant response rating, Barnyardgrass",[14]; [29],0
same,"Plant response rating, Cocklebur",[15]; [28],0
same,"Plant response rating, Cocklebur",[15]; [29],0
same,"Plant response rating, Corn",corn (Zea mays) [16]; [28],20
same,"Plant response rating, Corn",corn (Zea mays) [16]; [29],0
same,"Plant response rating, Crabgrass",[17]; [28],100
same,"Plant response rating, Crabgrass",[17]; [29],0
same,"Plant response rating, Foxtail, Giant",[18]; [28],100
same,"Plant response rating, Foxtail, Giant",[18]; [29],80
same,"Plant response rating, Lambsquarters",[19]; [28],100
same,"Plant response rating, Lambsquarters",[19]; [29],100
same,"Plant response rating, Morningglory",[20]; [28],0
same,"Plant response rating, Morningglory",[20]; [29],0
same,"Plant response rating, Pigweed",[21]; [28],100
same,"Plant response rating, Pigweed",[21]; [29],100
same,"Plant response rating, Rice",rice (Oryza saliva); [28],0
same,"Plant response rating, Rice",rice (Oryza saliva); [29],0
same,"Plant response rating, Velvetleaf",[22]; [28],0
same,"Plant response rating, Velvetleaf",[22]; [29],0
same,Flatsedge plant response rating,[23]; Rate 250 g/ha,70
same,"Plant response rating, Flatsedge",[23]; Rate 62 g/ha,0
same,"Plant response rating, Flatsedge",[23]; Rate 125 g/ha,0
same,"Plant response rating (0 to 100), Sunflower",Sunflower [24],20
same,"Plant response rating, Sunflower",Sunflower [25],20
COc1cccc(N2CCC(n3ccc(C(C)(C)C)n3)C2=O)c1 (centres unmarked) [Compound 87],"Plant response rating, Surinam grass",[1]; [26],0
same,"Plant response rating, Surinam grass",[1]; [27],0
same,"Plant response rating, Barnyardgrass",[2]; [26],0
same,"Plant response rating, Barnyardgrass",[2]; [27],30
same,"Plant response rating, Blackgrass",[3]; [26],0
same,"Plant response rating, Blackgrass",[3]; [27],0
same,"Plant response rating, Cocklebur",[4]; [26],0
same,"Plant response rating, Cocklebur",[4]; [27],0
same,"Plant response rating, Corn",corn (Zea mays) [5]; [26],0
same,"Plant response rating, Corn",corn (Zea mays) [5]; [27],0
same,"Plant response rating, Crabgrass",[6]; [26],0
same,"Plant response rating, Crabgrass",[6]; [27],0
same,"Plant response rating, Foxtail, Giant",[7]; [26],0
same,"Plant response rating, Foxtail, Giant",[7]; [27],0
same,"Plant response rating, Lambsquarters",[8]; [26],0
same,"Plant response rating, Lambsquarters",[8]; [27],50
same,"Plant response rating, Morningglory",[9]; [26],0
same,"Plant response rating, Morningglory",[9]; [27],0
same,"Plant response rating, Pigweed",[10]; [26],0
same,"Plant response rating, Pigweed",[10]; [27],40
same,"Plant response rating, Velvetleaf",[11]; [26],0
same,"Plant response rating, Velvetleaf",[11]; [27],0
same,"Plant response rating, Wheat",[12]; [26],0
same,"Plant response rating, Wheat",[12]; [27],0
same,"Plant response rating, Wild Oat",wild oat (Avena fatua); [26],0
same,"Plant response rating, Wild Oat",wild oat (Avena fatua); [27],0
same,"Plant response rating, Surinam grass",[13]; [28],100
same,"Plant response rating, Surinam grass",[13]; [29],80
same,"Plant response rating, Barnyardgrass",[14]; [28],100
same,"Plant response rating, Barnyardgrass",[14]; [29],100
same,"Plant response rating, Cocklebur",[15]; [28],0
same,"Plant response rating, Cocklebur",[15]; [29],0
same,"Plant response rating, Corn",corn (Zea mays) [16]; [28],60
same,"Plant response rating, Corn",corn (Zea mays) [16]; [29],30
same,"Plant response rating, Crabgrass",[17]; [28],100
same,"Plant response rating, Crabgrass",[17]; [29],100
same,"Plant response rating, Foxtail, Giant",[18]; [28],100
same,"Plant response rating, Foxtail, Giant",[18]; [29],100
same,"Plant response rating, Lambsquarters",[19]; [28],100
same,"Plant response rating, Lambsquarters",[19]; [29],100
same,"Plant response rating, Morningglory",[20]; [28],0
same,"Plant response rating, Morningglory",[20]; [29],0
same,"Plant response rating, Pigweed",[21]; [28],100
same,"Plant response rating, Pigweed",[21]; [29],100
same,"Plant response rating, Rice",rice (Oryza saliva); [28],100
same,"Plant response rating, Rice",rice (Oryza saliva); [29],70
same,"Plant response rating, Velvetleaf",[22]; [28],0
same,"Plant response rating, Velvetleaf",[22]; [29],0
same,Flatsedge plant response rating,[23]; Rate 250 g/ha,100
same,Flatsedge plant response rating,[23]; Rate 500 g/ha,100
same,"Plant response rating, Flatsedge",[23]; Rate 62 g/ha,0
same,"Plant response rating, Flatsedge",[23]; Rate 125 g/ha,100
same,"Plant response rating (0 to 100), Sunflower",Sunflower [24],30
same,"Plant response rating, Sunflower",Sunflower [25],20
CC(C)(C)c1ccn(C2CCN(c3cccc(I)c3)C2=O)n1 (centres unmarked) [Compound 88],"Plant response rating, Surinam grass",[1]; [26],0
same,"Plant response rating, Surinam grass",[1]; [27],0
same,"Plant response rating, Barnyardgrass",[2]; [26],0
same,"Plant response rating, Barnyardgrass",[2]; [27],90
same,"Plant response rating, Blackgrass",[3]; [26],0
same,"Plant response rating, Blackgrass",[3]; [27],0
same,"Plant response rating, Cocklebur",[4]; [26],20
same,"Plant response rating, Cocklebur",[4]; [27],30
same,"Plant response rating, Corn",corn (Zea mays) [5]; [26],0
same,"Plant response rating, Corn",corn (Zea mays) [5]; [27],10
same,"Plant response rating, Crabgrass",[6]; [26],0
same,"Plant response rating, Crabgrass",[6]; [27],0
same,"Plant response rating, Foxtail, Giant",[7]; [26],20
same,"Plant response rating, Foxtail, Giant",[7]; [27],60
same,"Plant response rating, Lambsquarters",[8]; [26],100
same,"Plant response rating, Lambsquarters",[8]; [27],100
same,"Plant response rating, Morningglory",[9]; [26],20
same,"Plant response rating, Morningglory",[9]; [27],70
same,"Plant response rating, Pigweed",[10]; [26],90
same,"Plant response rating, Pigweed",[10]; [27],100
same,"Plant response rating, Velvetleaf",[11]; [26],0
same,"Plant response rating, Velvetleaf",[11]; [27],40
same,"Plant response rating, Wheat",[12]; [26],0
same,"Plant response rating, Wheat",[12]; [27],30
same,"Plant response rating, Wild Oat",wild oat (Avena fatua); [26],0
same,"Plant response rating, Wild Oat",wild oat (Avena fatua); [27],0
same,"Plant response rating, Surinam grass",[13]; [28],100
same,"Plant response rating, Surinam grass",[13]; [29],70
same,"Plant response rating, Barnyardgrass",[14]; [28],100
same,"Plant response rating, Barnyardgrass",[14]; [29],100
same,"Plant response rating, Cocklebur",[15]; [28],0
same,"Plant response rating, Cocklebur",[15]; [29],0
same,"Plant response rating, Corn",corn (Zea mays) [16]; [28],20
same,"Plant response rating, Corn",corn (Zea mays) [16]; [29],20
same,"Plant response rating, Crabgrass",[17]; [28],100
same,"Plant response rating, Crabgrass",[17]; [29],100
same,"Plant response rating, Foxtail, Giant",[18]; [28],100
same,"Plant response rating, Foxtail, Giant",[18]; [29],100
same,"Plant response rating, Lambsquarters",[19]; [28],100
same,"Plant response rating, Lambsquarters",[19]; [29],100
same,"Plant response rating, Morningglory",[20]; [28],0
same,"Plant response rating, Morningglory",[20]; [29],0
same,"Plant response rating, Pigweed",[21]; [28],100
same,"Plant response rating, Pigweed",[21]; [29],100
same,"Plant response rating, Rice",rice (Oryza saliva); [28],100
same,"Plant response rating, Rice",rice (Oryza saliva); [29],0
same,"Plant response rating, Velvetleaf",[22]; [28],0
same,"Plant response rating, Velvetleaf",[22]; [29],0
same,Flatsedge plant response rating,[23]; Rate 250 g/ha,100
same,Flatsedge plant response rating,[23]; Rate 500 g/ha,100
same,"Plant response rating, Flatsedge",[23]; Rate 62 g/ha,90
same,"Plant response rating, Flatsedge",[23]; Rate 125 g/ha,90
same,"Plant response rating (0 to 100), Sunflower",Sunflower [24],20
same,"Plant response rating, Sunflower",Sunflower [25],20
